Laboratory results: patent publication US12550899B2, “Topramezone derivative and use thereof” (priority 2023, dated 2026)
Entries after “also recorded” stand apart in the source; their conditions may differ.

How the values were obtained:
[1] = test system: test weeds (grassy weeds, sedge, broadleaf weeds); assay: Laboratory bioactivity efficacy test 2.1, symptoms on the test weeds; format: in vivo; conditions: test 2.1 weeds
Excerpt: (§1) Refer to the “Pesticides guidelines for laboratory bioactivity tests Part 4: Foliar spray application test for herbicide activity, NY/T 1155.4-2006”.
• grassy weeds: Setaria viridis, Chloris virgata; • sedge: Cyperus rotundus; • Broadleaf weeds: Amaranthus retroflexus, Chenopodium album, Acalypha australis, Commelina communis, Convolvulus arvensis, Cirsium setosum, and Eclipta prostrata. 2.1.3 Test Conditions
The soil used for the test was a mixture of surface 20 cm loam and vermiculite, mixed in a volume ratio of 3:1 to form a culture soil. The test corn was cultured in a glass greenhouse with a temperature ranging from 25° C. to 35° C. and under natural light.
(§2) A measured quantity of weed seeds were sown in plastic pots with a diameter of 9 cm, and covered with 1-2 mm of soil. The ports were then placed in enamel trays filled with water, and watered by bottom irrigation. After sowing, the pots were transferred to the glass greenhouse for cultivation and growth.
(§3) Five dosages were set for Compound I, Compound II and the control herbicide Topramezone, which were 3.75, 7.5, 15, 30 and 60 grams of active ingredient per hectare respectively. In addition, a blank control was also prepared.
The required amount of the herbicide was accurately measured out, an appropriate amount of emulsifier and organic solvent were added to dissolve the herbicide, and then a certain amount of water was added therein until the herbicide was diluted to the required dosage by using the serial dilution method for standby.
The fresh weight of each treatment was surveyed 14 days after the application of the herbicide. The fresh weight control efficacy was calculated according to the following formula: fresh weight control efficacy (%)=(control fresh weight−treatment fresh weight)/control fresh weight×100.

Digitaria sanguinalis = assay: Laboratory rainfastness test (foliar spray, simulated rainfall); format: in vivo; conditions: for Average fresh weight / Control efficacy: 20 days post-application
Experimental: as §1
The soil used for the test was a mixture of surface 20 cm loam and vermiculite, mixed in a volume ratio of 3:1 to form a culture soil. The test weeds were cultured in a glass greenhouse with a temperature ranging from 25° C. to 35° C. and under natural light.
as §2, with “Digitaria sanguinalis” for “weed”, “the water seeped to the soil surface,” for “sowing,”, “standby.” for “cultivation and growth.”
as §3
The required amount of the herbicide was accurately measured out and directly added with water, which was diluted to the required dosage by using the serial dilution method for standby.
The test was conducted on Digitaria sanguinalis at the two-leaf and one-heart stage, with the stems and leaves both sprayed uniformly. The ASS-4 automatic control spraying system with a fan-shaped nozzle was used indoors for herbicide application. Depending on the nozzle pressure and flow rate, 50 mL of herbicide solution was applied to a spraying area of 1.1 m^2 (which was equivalent to the water consumption of 30 L per mu). The system's operating speed was calibrated. The plastic pots to be treated were arranged evenly on the spraying platform to ensure uniform treatment. The spray pressure was set to 0.35 MPa, and the flow rate of the fan-shaped nozzle was set to 800 mL/min. The spraying was carried out in sequence from the low dosage to the high dosage. Each treatment was repeated four times.
The rainfastness test was set as follows: at 0.5 hours, 1.0 hour, 3.0 hours, and 6.0 hours after the application of the herbicide, the weeds that have already been sprayed with the herbicide were subjected to stem and leaf showering with a specific shower equipment simulating rainfall. Weeds that were not subjected to the showering treatment served as the control group.
The damage symptoms of the weeds (such as growth inhibition, chlorosis, malformation, etc.) were carefully recorded at 3, 7, 10, and 20 days after herbicide application. A visual comparison of the herbicide effectiveness was made after simulated rainfall at different time intervals. At 20 days post-application, the fresh weight of the aboveground parts of the weeds from each treatment group was measured, and the fresh weight control efficacy was calculated.
The treatment results were calculated according to the following formula: weed fresh weight control efficacy (%)=(control fresh weight−treatment fresh weight)/control fresh weight×100. A DPS statistical software was used to conduct regression analysis on the logarithmic values of the herbicide dosage and the probit values of the weed fresh weight control efficacy, and the correlation coefficient, GR50, GR90, and the 95% confidence interval were calculated.

[2] = No spraying (no simulated rainfall), dosage 3.75 g/hectare
[3] = No spraying (no simulated rainfall), dosage 7.5 g/hectare
[4] = No spraying (no simulated rainfall), dosage 15 g/hectare
[5] = No spraying (no simulated rainfall), dosage 30 g/hectare
[6] = No spraying (no simulated rainfall), dosage 60 g/hectare
[7] = Spraying water 0.5 hour after herbicide application, dosage 3.75 g/hectare
[8] = Spraying water 0.5 hour after herbicide application, dosage 7.5 g/hectare
[9] = Spraying water 0.5 hour after herbicide application, dosage 15 g/hectare
[10] = Spraying water 0.5 hour after herbicide application, dosage 30 g/hectare
[11] = Spraying water 0.5 hour after herbicide application, dosage 60 g/hectare
[12] = Spraying water 1.0 hour after herbicide application, dosage 3.75 g/hectare
[13] = Spraying water 1.0 hour after herbicide application, dosage 7.5 g/hectare
[14] = Spraying water 1.0 hour after herbicide application, dosage 15 g/hectare
[15] = Spraying water 1.0 hour after herbicide application, dosage 30 g/hectare
[16] = Spraying water 1.0 hour after herbicide application, dosage 60 g/hectare
[17] = Spraying water 3.0 hour after herbicide application, dosage 3.75 g/hectare
[18] = Spraying water 3.0 hour after herbicide application, dosage 7.5 g/hectare
[19] = Spraying water 3.0 hour after herbicide application, dosage 15 g/hectare
[20] = Spraying water 3.0 hour after herbicide application, dosage 30 g/hectare
[21] = Spraying water 3.0 hour after herbicide application, dosage 60 g/hectare
[22] = Spraying water 6.0 hour after herbicide application, dosage 3.75 g/hectare
[23] = Spraying water 6.0 hour after herbicide application, dosage 7.5 g/hectare
[24] = Spraying water 6.0 hour after herbicide application, dosage 15 g/hectare
[25] = Spraying water 6.0 hour after herbicide application, dosage 30 g/hectare
[26] = Spraying water 6.0 hour after herbicide application, dosage 60 g/hectare

## Cc1c(C(=O)c2cnn(C)c2OC(=O)C(C)(C)C)ccc(S(C)(=O)=O)c1C1=NOCC1 [Compound II, 4-(3-(4,5-dihydroisoxazol-3-yl)-2-methyl-4-(methylsulfonyl)benzoyl)-1-methyl-1H-pyrazol-5-yl pivalate]
[1]
  Symptoms on the test weeds: clear pesticidal efficacy symptoms
Digitaria sanguinalis; [2]
  Average fresh weight: 6.0 g
  Control efficacy: 8.8%
Digitaria sanguinalis; [3]
  Average fresh weight: 4.7 g
  Control efficacy: 28.7%
Digitaria sanguinalis; [4]
  Average fresh weight: 3.4 g
  Control efficacy: 47.9%
Digitaria sanguinalis; [5]
  Average fresh weight: 2.3 g
  Control efficacy: 64.4%
Digitaria sanguinalis; [6]
  Average fresh weight: 1.0 g
  Control efficacy: 84.7%
Digitaria sanguinalis; [7]
  Average fresh weight: 6.2 g
  Control efficacy: 5.7%
Digitaria sanguinalis; [8]
  Average fresh weight: 4.6 g
  Control efficacy: 29.1%
Digitaria sanguinalis; [9]
  Average fresh weight: 3.6 g
  Control efficacy: 45.2%
Digitaria sanguinalis; [10]
  Average fresh weight: 2.5 g
  Control efficacy: 62.1%
Digitaria sanguinalis; [11]
  Average fresh weight: 0.6 g
  Control efficacy: 90.8%
Digitaria sanguinalis; [12]
  Average fresh weight: 5.9 g
  Control efficacy: 10.0%
Digitaria sanguinalis; [13]
  Average fresh weight: 5.3 g
  Control efficacy: 18.8%
Digitaria sanguinalis; [14]
  Average fresh weight: 3.3 g
  Control efficacy: 49.0%
Digitaria sanguinalis; [15]
  Average fresh weight: 2.4 g
  Control efficacy: 64.0%
Digitaria sanguinalis; [16]
  Average fresh weight: 0.8 g
  Control efficacy: 88.5%
Digitaria sanguinalis; [17]
  Average fresh weight: 6.0 g
  Control efficacy: 8.8%
Digitaria sanguinalis; [18]
  Average fresh weight: 5.1 g
  Control efficacy: 22.2%
Digitaria sanguinalis; [19]
  Average fresh weight: 3.9 g
  Control efficacy: 40.6%
Digitaria sanguinalis; [20]
  Average fresh weight: 2.0 g
  Control efficacy: 70.1%
Digitaria sanguinalis; [21]
  Average fresh weight: 1.0 g
  Control efficacy: 84.7%
Digitaria sanguinalis; [22]
  Average fresh weight: 6.1 g
  Control efficacy: 6.5%
Digitaria sanguinalis; [23]
  Average fresh weight: 4.7 g
  Control efficacy: 27.6%
Digitaria sanguinalis; [24]
  Average fresh weight: 3.6 g
  Control efficacy: 44.8%
Digitaria sanguinalis; [25]
  Average fresh weight: 2.2 g
  Control efficacy: 66.7%
Digitaria sanguinalis; [26]
  Average fresh weight: 0.8 g
  Control efficacy: 87.4%
Digitaria sanguinalis; in vivo
  Rainfastness compared with Topramezone (in words): significantly better rainfastness
Digitaria sanguinalis; rain 0.5 h, 1.0 h and 3.0 h after application
  Effect of rain on control efficacy (in words): remained stable
Digitaria sanguinalis; rain 0.5 h after application
  Effect of rain on control efficacy (in words): little impact; also recorded: almost unaffected
